Each block holds one molecule with its values, some of them ahead of it.
Tests used:
[1] = test system: human epidermoid carcinoma cell line-A431; test: cells; assay type: cell-based; conditions: for Percent Grown: A431, 72-hour exposure
Experimental: In this example, assays were performed to detect changes in cell proliferation based on the ability of viable cells to cause alamarBlue to change from non-fluorescent blue to a reduced, fluorescent red form. With the results obtained from the alamarBlue reaction, cell proliferation can be quantified and metabolic activity of viable cells can be examined. Test compounds including Morinda citrifolia leaf extract, leaf juice, and roast leaf were tested for their effects on the proliferation of human epidermoid carcinoma cell line-A431 at assay concentrations from 0.01 to 100 μg/ml or 0.0001% to 1% through serial 10-fold dilutions.
Morinda citrifolia leaf extract, leaf juice, and roast leaf were provided by Tahitian Noni International, Inc. for in vitro anti-tumor studies. The Morinda citrifolia compounds were dissolved in sterile distilled water and then diluted with sterile distilled water to obtain initial working solutions of 10000, 1000, 100, 10, and 1 μg/ml for the leaf extract and roast leaf, as well as 100, 10, 1, 0.1 and 0.01% for the leaf juice. In testing, 100-fold dilution was made in culture media to get final assay concentrations of 100, 10, 1, 0.1 and 0.01 μg/ml, and 1, 0.1, 0.01, 0.001 and 0.0001%, respectively.
The tumor cell line, A431 (human epidermoid carcinoma), obtained from American Type Culture Collection (ATCC CRL-1555), was incubated in an air atmosphere of 5% CO2 at 37° C. The culture medium was used with Dulbecco's Modified Eagle's medium, 90%; Fetal Bovine Serum, 10% and supplemented with 1% Antibiotic-Antimycotic.
The anti-proliferation for the test substances was evaluated. Aliquots of 100 µl of cell suspension (about 3×10^3/well) were placed in 96-well microtiter plates in an atmosphere of 5% CO2 at 37° C. […] Two test compounds, leaf extract and roast leaf, were evaluated at concentrations of […]. The other compound, leaf juice, was evaluated at concentrations of 1, 0.1, 0.01, 0.001 and 0.0001%. At the end of incubation, 20 µl of 90% alamarBlue reagent was added to each well for another 6-hour incubation before detection of cell viability by fluorescent intensity. Fluorescent intensity was measured using a Spectrafluor Plus plate reader with excitation at 530 nm and demission at 590 nm.
IC50, TGI, and LC50 values were then determined. […] TGI (Total Growth Inhibition) is the test compound concentration where the number or mass of treated cells at the end of the experiment was equal to that at time0. […] The measured results were calculated by the following formula: PG(%)=100×(Mean Ftest−Mean Ftime0)^/(Mean Fctr l−Mean Ftime0)
If (Mean Ftest−Mean Ftime0)^<0, then PG(%)−100×(Mean Ftest−Mean Ftime0)/(Mean Ftime0−Mean Fblank)
Where: PG=percent growth; Mean Ftime0=The average of 2 measured fluorescent intensities of reduced alamarBlue at the time just before exposure of cells to the test substance; Mean Ftest=The average of 2 measured fluorescent intensities of alamarBlue after 72-hour exposure of cells to the test substance; Mean Fctrl=The average of 2 measured fluorescent intensities of alamarBlue after 72-hour incubation without the test substance; and Mean Fblank=The average of 2 measured fluorescent intensities of alamarBlue in medium without cells after 72-hour incubation.
A decrease of 50% or more (≧50%) in fluorescent intensity relative to the vehicle-treated control indicated significant cell growth inhibition, cytostatic or cytotoxic activity, and a semi-quantitative IC50, TGI, and LC50 were then determined by nonlinear regression using GraphPad Prism (GraphPad Software, USA).

Adenosine A2A = Adenosine A2A (Homo sapiens, UniProt P29274); test: bio-assay on Adenosine A2A; conditions: isolated from squeezed juice of fresh Morinda citrifolia leaf
Adenosine A2A, sequence (P29274 whole entry): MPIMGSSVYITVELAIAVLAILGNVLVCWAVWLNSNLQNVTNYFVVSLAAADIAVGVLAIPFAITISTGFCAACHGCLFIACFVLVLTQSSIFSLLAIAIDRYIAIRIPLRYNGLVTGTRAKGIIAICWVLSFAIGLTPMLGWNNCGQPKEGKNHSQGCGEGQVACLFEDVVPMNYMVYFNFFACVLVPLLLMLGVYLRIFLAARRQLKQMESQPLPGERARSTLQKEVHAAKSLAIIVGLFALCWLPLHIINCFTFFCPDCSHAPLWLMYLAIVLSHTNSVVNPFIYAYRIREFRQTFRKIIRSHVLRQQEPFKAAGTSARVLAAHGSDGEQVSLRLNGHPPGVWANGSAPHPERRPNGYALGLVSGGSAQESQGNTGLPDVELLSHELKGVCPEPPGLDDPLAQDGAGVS
From the text: Their structures have been determined by NMR techniques and mass spectrometry and they have been identified as Pyro-phorbide a, Pheoporbide a, Purpin 7, and Pheophorbide Phytolester. The isolation and characterization of the above referenced bioactive compounds provides a significant explanation for the anti-inflammatory and analgesic properties of extracts derived from the Morinda citrifolia plant, particularly from the leaf of the plant.

Molecule: CO[C@@]12[C@H](COC(N)=O)C3=C(C(=O)C(C)=C(N)C3=O)N1C[C@@H]1N[C@@H]12 [Mitomycin]
Percent Grown ([1]; Concentration 0.001 (ttM)): 101 +/− 5% | Percent Grown ([1]; Concentration 0.01 (ttM)): 82 +/− 3% | Percent Grown ([1]; Concentration 0.1 (ttM)): 7 +/− 3% | Percent Grown ([1]; Concentration 1 (ttM)): 35 +/− 8% | Percent Grown ([1]; Concentration 10 (ttM)): 97 +/− 0% | IC50 ([1]; Homo sapiens, A-431, Tumor, Skin (A431), semi-quantitative, nonlinear regression, read-out: IC50 (50% Inhibition Concentration)): 0.035 µM | TGI (Total Growth Inhibition) ([1]; Tumor, Skin (A431), semi-quantitative, nonlinear regression): 0.19 µM | inhibitory activity on tumor cell growth ([1]; at <10 p.M, A431): Significant inhibitory activity

bioactivity in bio-assay on Adenosine A2A (Adenosine A2A): significant bioactivity
Molecule: Pheophorbide Phytolester

bioactivity in bio-assay on Adenosine A2A (Adenosine A2A): significant bioactivity
Molecule: Pheoporbide a

bioactivity in bio-assay on Adenosine A2A (Adenosine A2A): significant bioactivity
Molecule: Purpin 7

bioactivity in bio-assay on Adenosine A2A (Adenosine A2A): significant bioactivity
Molecule: Pyro-phorbide a

Source: US8535741B2, “Method and composition for administering bioactive compounds derived from Morinda citrifolia” (priority 2006, dated 2013)
